Assay results taken from ChEMBL document CHEMBL1201862, “PubChem BioAssay data set” (2004).
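Briefly, cells in 96-well plates were exposed to five compound concentrations for 48 h, and endpoints were estimated by linear interpolation. At the GI50, growth is halved.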 The source made the active and inactive calls. No stated cut-off is given here; in the data, active = GI50 up to about 1.1 µM and inactive = higher.

How the values were obtained:
Assay in all cases: NCI tumour cell line growth inhibition, 48 h
[1] = system: 786-0
[2] = system: A498
[3] = system: A549
[4] = system: ACHN
[5] = system: BT-549
[6] = system: CAKI-1
[7] = system: CCRF-CEM
[8] = system: COLO 205
[9] = system: DLD-1
[10] = system: DMS-114
[11] = system: DMS-273
[12] = system: DU-145
[13] = system: EKVX
[14] = system: HCC 2998
[15] = system: HCT-116
[16] = system: HCT-15
[17] = system: HL-60
[18] = system: HOP-18
[19] = system: HOP-62
[20] = system: HOP-92
[21] = system: HT-29
[22] = system: Hs-578T
[23] = system: IGROV-1
[24] = system: K562
[25] = system: KM-20L2
[26] = system: KM12
[27] = system: LOX IMVI
[28] = system: LXFL 529
[29] = system: M14
[30] = system: M19-MEL
[31] = system: MCF7
[32] = system: MDA-MB-231
[33] = system: MDA-MB-435
[34] = system: MDA-N
[35] = system: MOLT-4
[36] = system: Malme-3M
[37] = system: NCI-H226
[38] = system: NCI-H23
[39] = system: NCI-H460
[40] = system: NCI-H522
[41] = system: NCI/ADR-RES
[42] = system: OVCAR-3
[43] = system: OVCAR-4
[44] = system: OVCAR-5
[45] = system: OVCAR-8
[46] = system: PC-3
[47] = system: RPMI-8226
[48] = system: RXF 393
[49] = system: RXF 631
[50] = system: SF-268
[51] = system: SF-295
[52] = system: SF-539
[53] = system: SK-MEL-28
[54] = system: SK-MEL-2
[55] = system: SK-MEL-5
[56] = system: SK-OV-3
[57] = system: SN12C
[58] = system: SNB-19
[59] = system: SNB-75
[60] = system: SNB-78
[61] = system: SR
[62] = system: SW-620
[63] = system: T47D
[64] = system: TK-10
[65] = system: U-251
[66] = system: UACC-257
[67] = system: UACC-62
[68] = system: UO-31
[69] = system: XF498

O=C1CC(c2n[nH]c3ccccc23)C(=O)N1c1ccccc1 (centres undefined)
GI50 [1]: > 100 µM (inactive)
GI50 [2]: > 100 µM (inactive)
GI50 [3]: > 100 µM (inactive)
GI50 [4]: > 100 µM (inactive)
GI50 [5]: > 100 µM (inactive)
GI50 [6]: > 100 µM (inactive)
GI50 [7]: 29.2 µM (inactive)
GI50 [8]: > 93.8 µM (inactive)
GI50 [9]: > 100 µM (inactive)
GI50 [10]: > 100 µM (inactive)
GI50 [11]: > 100 µM (inactive)
GI50 [12]: > 100 µM (inactive)
GI50 [13]: > 100 µM (inactive)
GI50 [14]: > 100 µM (inactive)
GI50 [15]: > 100 µM (inactive)
GI50 [16]: > 100 µM
GI50 [17]: 25.6 µM (inactive)
GI50 [18]: > 100 µM (inactive)
GI50 [19]: > 100 µM (inactive)
GI50 [20]: > 78.2 µM (inactive)
GI50 [21]: > 100 µM (inactive)
GI50 [22]: > 100 µM (inactive)
GI50 [23]: > 100 µM (inactive)
GI50 [24]: 43.9 µM (inactive)
GI50 [25]: > 100 µM (inactive)
GI50 [26]: > 100 µM (inactive)
GI50 [27]: > 100 µM (inactive)
GI50 [28]: > 95.9 µM (inactive)
GI50 [29]: > 100 µM (inactive)
GI50 [30]: > 100 µM (inactive)
GI50 [31]: > 100 µM (inactive)
GI50 [32]: > 100 µM (inactive)
GI50 [33]: > 100 µM (inactive)
GI50 [34]: > 100 µM (inactive)
GI50 [35]: > 74 µM (inactive)
GI50 [36]: > 100 µM (inactive)
GI50 [37]: > 88.5 µM (inactive)
GI50 [38]: > 100 µM (inactive)
GI50 [39]: > 100 µM (inactive)
GI50 [40]: > 100 µM (inactive)
GI50 [41]: > 100 µM (inactive)
GI50 [42]: > 100 µM (inactive)
GI50 [43]: > 100 µM (inactive)
GI50 [44]: > 100 µM (inactive)
GI50 [45]: > 100 µM (inactive)
GI50 [46]: > 100 µM (inactive)
GI50 [47]: 82.8 µM (inactive)
GI50 [48]: > 100 µM (inactive)
GI50 [49]: > 100 µM (inactive)
GI50 [50]: > 100 µM (inactive)
GI50 [51]: > 100 µM (inactive)
GI50 [52]: > 100 µM (inactive)
GI50 [53]: > 100 µM (inactive)
GI50 [54]: > 100 µM (inactive)
GI50 [55]: > 100 µM (inactive)
GI50 [56]: > 100 µM (inactive)
GI50 [57]: > 100 µM (inactive)
GI50 [58]: > 100 µM (inactive)
GI50 [59]: > 100 µM (inactive)
GI50 [60]: > 100 µM (inactive)
GI50 [61]: 36.5 µM (inactive)
GI50 [62]: > 84.1 µM (inactive)
GI50 [63]: > 100 µM (inactive)
GI50 [64]: > 100 µM (inactive)
GI50 [65]: > 100 µM (inactive)
GI50 [66]: > 100 µM (inactive)
GI50 [67]: > 100 µM (inactive)
GI50 [68]: > 100 µM (inactive)
GI50 [69]: > 100 µM (inactive)
